In this test the test system is E. coli (ATCC25922). The test can be described thus: Susceptibility test of microorganism to antibiotic by real-time capacitance change on interdigitated-electrode PET biosensor. In kind it is cell-based, Escherichia coli. As to conditions: antibiotic 0.5 to 8 μg/mL; for susceptibility of E. coli (ATCC25922) to antibiotic: 10^5 cells/mL; for capacitance change after treatment with antibiotic: E. coli (ATCC25922) 10^5 cells/mL. The method, then:
The strain used in the experiment was Escherichia coli (ATCC25922), and a standard strain was purchased from ATCC of the United States and used. For the culture of the strain, the Mueller-Hinton media (MH media), which is a culture medium recommended by the US standard CLSI and European standard EUCAST, was purchased from DIFCO and used according to the recommended preparation method in the product manual. After culturing the strain in the MH media for 24 hours, the strain culture medium was adjusted to McFarland OD 0.5, and then diluted 1/100 with the culture medium (strain concentration: 5×10^5 to 10^6 cfu/mL) and treated on the sensor.
The susceptibility of microorganisms to antibiotics was measured by using the sensors fabricated in Examples 1 and 2.

[1] abbreviates: sensor of Example 1 (PET substrate-Ag electrode), FIG. 4b.
Setting [2] is: sensor of Example 2 (PET substrate-Au electrode), FIG. 5c.

Regarding `CC1(C)S[C@@H]2[C@H](NC(=O)[C@H](N)c3ccccc3)C(=O)N2[C@H]1C(=O)O` [ampicillin], under setting [1], the “susceptibility of E. coli (ATCC25922) to antibiotic” value is on record as “tolerance (resistance)” and the “capacitance change after treatment with antibiotic” value is “significantly increased capacitance change”. Moreover, under setting [2], the “susceptibility of E. coli (ATCC25922) to antibiotic” value was “resistance” and the “capacitance change after treatment with antibiotic” value is listed as “capacitance change significantly increased”.

Source of the values: US20240043903A1, “BIOSENSOR USING PET SUBSTRATE, FABRICATION METHOD THEREFOR, AND METHOD FOR INSPECTING SENSITIVITY OF MICROORGANISM TO ANTIBIOTIC BY USING SAME” (priority 2020, published 2024).
